ChEMBL document CHEMBL5038633 (J Med Chem, 2022)
Where a SMILES comes first, the peptide text is derived from it. Bridges are numbered along the chain shown (N, C = ends). [ ]: non-standard residue; d: D form. Trp(5-Br) = N[C@@H](Cc1c[nH]c2ccc(Br)cc12)C(=O)O; Abu(4,4,4-F3) = N[C@@H](CC(F)(F)F)C(=O)O; Phe(3-Cl) = N[C@@H](Cc1cccc(Cl)c1)C(=O)O; Cha = N[C@@H](CC1CCCCC1)C(=O)O; Chg = N[C@H](C(=O)O)C1CCCCC1

Columns and labels:
[1] = Inhibition of mast cell degranulation in Wistar Han rat peritoneal lavage mast cells assessed as inhibition histamine release by measuring lowest concentration at which histamine release observed measured after 30 mins; format: functional; conditions: 0.5 h
[2] = target: Sodium channel protein type 4 subunit alpha (Homo sapiens, UniProt P35499); assay: Inhibition of human Nav1.4 stably expressed in cells with train pulses to -20 mV at 0.1 Hz and holding potential of -95 mV by whole-cell Qube-automated patch clamp assay; format: cell-based
[3] = target: Sodium channel protein type 8 subunit alpha (Homo sapiens, UniProt Q9UQD0); assay: Inhibition of human Nav1.6 stably expressed in cells with train pulses to -20 mV at 0.1 Hz and holding potential of -85 mV by whole-cell Qube-automated patch clamp assay; format: cell-based
[4] = target: Sodium channel protein type 9 subunit alpha (Homo sapiens, UniProt Q15858); assay: Inhibition of human Nav1.7 stably expressed in cells with train pulses to -20 mV at 0.1 Hz and holding potential of -95 mV by Qube-automated patch clamp assay; format: cell-based
Sequence of Sodium channel protein type 9 subunit alpha (Q15858 whole entry): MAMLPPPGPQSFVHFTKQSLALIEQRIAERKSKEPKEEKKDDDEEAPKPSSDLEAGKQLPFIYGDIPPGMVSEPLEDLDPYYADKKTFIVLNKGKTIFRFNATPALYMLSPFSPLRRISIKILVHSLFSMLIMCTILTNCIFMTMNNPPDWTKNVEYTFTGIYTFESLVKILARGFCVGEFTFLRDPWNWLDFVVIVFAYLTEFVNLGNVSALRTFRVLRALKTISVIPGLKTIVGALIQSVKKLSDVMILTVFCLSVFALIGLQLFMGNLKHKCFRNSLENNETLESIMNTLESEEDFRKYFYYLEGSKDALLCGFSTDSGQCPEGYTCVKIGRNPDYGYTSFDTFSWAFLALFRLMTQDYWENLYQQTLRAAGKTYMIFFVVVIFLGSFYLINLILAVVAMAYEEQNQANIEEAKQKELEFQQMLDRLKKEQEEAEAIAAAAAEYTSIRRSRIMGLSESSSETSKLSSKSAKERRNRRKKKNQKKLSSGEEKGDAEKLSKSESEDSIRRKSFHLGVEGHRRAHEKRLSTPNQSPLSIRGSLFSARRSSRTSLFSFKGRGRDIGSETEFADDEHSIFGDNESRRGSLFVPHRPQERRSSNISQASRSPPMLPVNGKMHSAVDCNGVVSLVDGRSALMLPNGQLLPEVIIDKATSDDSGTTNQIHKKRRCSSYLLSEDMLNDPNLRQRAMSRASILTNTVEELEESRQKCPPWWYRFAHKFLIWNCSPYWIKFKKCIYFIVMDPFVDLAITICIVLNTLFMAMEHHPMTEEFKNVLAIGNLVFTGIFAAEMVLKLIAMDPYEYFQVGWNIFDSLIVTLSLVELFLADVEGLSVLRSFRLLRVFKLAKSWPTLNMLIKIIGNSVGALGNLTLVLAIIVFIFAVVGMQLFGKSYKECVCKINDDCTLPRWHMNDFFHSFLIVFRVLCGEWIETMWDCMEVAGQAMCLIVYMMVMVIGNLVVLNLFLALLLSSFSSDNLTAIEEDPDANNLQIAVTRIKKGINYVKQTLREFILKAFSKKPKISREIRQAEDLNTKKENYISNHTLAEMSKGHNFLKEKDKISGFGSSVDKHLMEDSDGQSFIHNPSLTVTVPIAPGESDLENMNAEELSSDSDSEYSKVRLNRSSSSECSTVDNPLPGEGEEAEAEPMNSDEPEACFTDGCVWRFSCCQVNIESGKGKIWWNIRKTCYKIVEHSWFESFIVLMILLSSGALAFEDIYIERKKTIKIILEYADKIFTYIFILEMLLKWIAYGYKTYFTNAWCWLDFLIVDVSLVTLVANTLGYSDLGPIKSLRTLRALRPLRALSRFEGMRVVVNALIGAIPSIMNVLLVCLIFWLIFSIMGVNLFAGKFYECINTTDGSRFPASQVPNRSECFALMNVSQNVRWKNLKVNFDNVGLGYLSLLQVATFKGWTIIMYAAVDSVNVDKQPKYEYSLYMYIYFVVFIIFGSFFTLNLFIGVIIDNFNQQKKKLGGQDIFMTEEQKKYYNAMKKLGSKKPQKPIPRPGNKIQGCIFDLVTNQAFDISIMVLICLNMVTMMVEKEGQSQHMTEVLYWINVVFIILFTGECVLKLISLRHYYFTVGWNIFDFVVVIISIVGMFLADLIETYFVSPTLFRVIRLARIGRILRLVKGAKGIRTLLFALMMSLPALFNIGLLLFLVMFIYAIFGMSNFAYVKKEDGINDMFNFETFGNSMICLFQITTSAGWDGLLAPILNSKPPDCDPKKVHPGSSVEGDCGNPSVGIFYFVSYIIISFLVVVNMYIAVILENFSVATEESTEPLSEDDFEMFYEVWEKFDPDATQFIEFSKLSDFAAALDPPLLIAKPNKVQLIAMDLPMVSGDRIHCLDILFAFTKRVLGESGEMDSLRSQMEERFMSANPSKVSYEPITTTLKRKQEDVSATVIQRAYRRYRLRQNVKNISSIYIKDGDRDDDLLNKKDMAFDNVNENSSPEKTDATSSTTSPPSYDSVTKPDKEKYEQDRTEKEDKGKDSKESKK

Sequence of Sodium channel protein type 8 subunit alpha (Q9UQD0 whole entry): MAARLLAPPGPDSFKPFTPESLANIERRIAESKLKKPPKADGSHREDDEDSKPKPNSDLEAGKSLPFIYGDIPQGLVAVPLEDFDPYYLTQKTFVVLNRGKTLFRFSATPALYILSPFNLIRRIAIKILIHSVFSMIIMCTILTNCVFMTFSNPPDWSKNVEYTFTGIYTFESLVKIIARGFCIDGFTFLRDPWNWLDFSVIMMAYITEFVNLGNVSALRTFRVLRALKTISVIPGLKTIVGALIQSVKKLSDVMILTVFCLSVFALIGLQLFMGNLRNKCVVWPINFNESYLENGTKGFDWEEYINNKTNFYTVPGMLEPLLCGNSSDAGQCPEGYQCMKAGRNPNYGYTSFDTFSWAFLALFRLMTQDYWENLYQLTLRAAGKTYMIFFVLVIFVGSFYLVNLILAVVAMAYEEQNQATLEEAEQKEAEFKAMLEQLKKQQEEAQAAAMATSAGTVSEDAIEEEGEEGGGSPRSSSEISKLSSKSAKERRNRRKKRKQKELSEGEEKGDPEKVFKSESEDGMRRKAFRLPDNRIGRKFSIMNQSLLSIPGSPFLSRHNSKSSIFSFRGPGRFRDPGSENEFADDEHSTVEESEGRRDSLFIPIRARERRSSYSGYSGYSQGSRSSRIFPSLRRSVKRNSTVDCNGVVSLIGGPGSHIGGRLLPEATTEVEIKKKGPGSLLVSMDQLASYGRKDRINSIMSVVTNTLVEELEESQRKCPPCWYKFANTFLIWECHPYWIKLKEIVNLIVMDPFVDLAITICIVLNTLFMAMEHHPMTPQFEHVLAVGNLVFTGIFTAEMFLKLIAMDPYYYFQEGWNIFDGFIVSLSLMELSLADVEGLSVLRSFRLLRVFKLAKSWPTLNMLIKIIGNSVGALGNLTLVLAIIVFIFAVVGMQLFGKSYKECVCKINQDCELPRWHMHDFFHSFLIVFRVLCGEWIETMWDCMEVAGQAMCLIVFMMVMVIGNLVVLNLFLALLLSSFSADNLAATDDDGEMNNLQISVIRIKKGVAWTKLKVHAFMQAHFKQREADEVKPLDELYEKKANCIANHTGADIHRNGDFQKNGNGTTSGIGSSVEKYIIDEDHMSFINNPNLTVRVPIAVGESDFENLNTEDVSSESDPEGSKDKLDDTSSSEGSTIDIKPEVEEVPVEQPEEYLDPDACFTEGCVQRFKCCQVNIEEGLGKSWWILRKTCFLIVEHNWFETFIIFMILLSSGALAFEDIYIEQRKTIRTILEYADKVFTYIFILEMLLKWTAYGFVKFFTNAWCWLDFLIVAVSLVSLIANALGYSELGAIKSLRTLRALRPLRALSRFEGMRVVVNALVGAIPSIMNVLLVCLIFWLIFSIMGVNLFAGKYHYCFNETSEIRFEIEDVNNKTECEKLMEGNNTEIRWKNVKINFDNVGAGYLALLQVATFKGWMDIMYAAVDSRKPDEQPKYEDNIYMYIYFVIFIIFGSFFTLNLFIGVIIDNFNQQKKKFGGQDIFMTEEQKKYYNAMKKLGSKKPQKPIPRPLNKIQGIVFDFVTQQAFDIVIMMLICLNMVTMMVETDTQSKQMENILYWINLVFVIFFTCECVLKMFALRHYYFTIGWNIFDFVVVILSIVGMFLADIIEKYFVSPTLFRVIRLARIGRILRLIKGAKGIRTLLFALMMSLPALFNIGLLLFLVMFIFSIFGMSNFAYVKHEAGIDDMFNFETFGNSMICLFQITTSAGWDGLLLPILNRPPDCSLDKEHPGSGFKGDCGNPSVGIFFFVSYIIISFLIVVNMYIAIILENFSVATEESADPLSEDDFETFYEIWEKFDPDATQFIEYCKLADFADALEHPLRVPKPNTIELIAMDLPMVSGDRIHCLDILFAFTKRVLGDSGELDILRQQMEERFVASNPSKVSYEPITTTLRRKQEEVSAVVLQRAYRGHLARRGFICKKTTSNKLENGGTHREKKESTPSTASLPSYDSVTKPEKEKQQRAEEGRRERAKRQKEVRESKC

Compound | LED [1] [µM] | IC50 [2] [nM] | IC50 [3] [nM] | IC50 [4] [nM]
CC(=O)N[C@H]1CSSC[C@@H]2NC(=O)[C@@H]3CSSC[C@@H](C(=O)N[C@@H](CCCCN)C(=O)N[C@@H](CCCCN)C(=O)N[C@@H](CCCCN)C(=O)N[C@@H](CC(C)C)C(=O)N[C@@H](Cc4c[nH]c5ccccc45)C(N)=O)NC(=O)[C@H](Cc4c[nH]c5ccccc45)NC(=O)[C@H](CC(C)C)NC(=O)[C@H](CCCNC(=N)N)NC(=O)[C@H](CSSC[C@H](NC(=O)[C@@H]4CCCN4C(=O)[C@H](C)NC(=O)[C@H](CC(C)C)NC(=O)[C@H](Cc4ccccc4)NC(=O)[C@H](CCCCN)NC(=O)[C@H](CCC(N)=O)NC1=O)C(=O)N[C@@H](CC(=O)O)C(=O)N[C@@H](CO)C(=O)N[C@@H](CCC(=O)O)C(=O)N[C@@H](CCCNC(=N)N)C(=O)N[C@@H](CCCCN)C(=O)N3)NC(=O)[C@H](C(C)C)NC(=O)[C@H](CC(C)C)NC(=O)CNC(=O)[C@H](CCC(=O)O)NC2=O (Ac-CQKFLAPCDSERKCCEGLVCRLWCKKKLW-NH2; disulfide 1-15, 8-20, 14-24) | 3.3 | 1240 | 1230 | 20
CC(=O)N[C@H]1CSSC[C@@H]2NC(=O)[C@@H]3CSSC[C@@H](C(=O)N[C@@H](CCCCN)C(=O)N[C@@H](CCCCN)C(=O)N[C@@H](CCCCN)C(=O)N[C@@H](CC(C)C)C(=O)N[C@@H](Cc4c[nH]c5ccccc45)C(N)=O)NC(=O)[C@H](Cc4c[nH]c5ccccc45)NC(=O)[C@H](CC(C)C)NC(=O)[C@H](CCCCN)NC(=O)[C@H](CSSC[C@H](NC(=O)[C@@H]4CCCN4C(=O)[C@H](CCC(=O)O)NC(=O)[C@H](CC(C)C)NC(=O)[C@H](Cc4ccccc4)NC(=O)[C@H](CCCCN)NC(=O)[C@H](CCC(N)=O)NC1=O)C(=O)N[C@@H](CC(=O)O)C(=O)N[C@@H](CCC(=O)O)C(=O)N[C@@H](CCC(=O)O)C(=O)N[C@@H](CCCNC(=N)N)C(=O)N[C@@H](CCCCN)C(=O)N3)NC(=O)[C@H](C(C)C)NC(=O)[C@H](CC(C)C)NC(=O)CNC(=O)[C@H](CCC(=O)O)NC2=O (Ac-CQKFLEPCDEERKCCEGLVCKLWCKKKLW-NH2; disulfide 1-15, 8-20, 14-24) | 10 | > 17000 | > 17000 | 218
CC(=O)N[C@H]1CSSC[C@@H]2NC(=O)[C@@H]3CSSC[C@@H](C(=O)N[C@@H](CCCCN)C(=O)N[C@@H](CCCCN)C(=O)N[C@@H](CCCCN)C(=O)N[C@@H](CC(C)C)C(=O)N[C@@H](Cc4c[nH]c5ccccc45)C(N)=O)NC(=O)[C@H](Cc4c[nH]c5ccccc45)NC(=O)[C@H](C4CCCCC4)NC(=O)[C@H](CCCCN)NC(=O)[C@H](CSSC[C@H](NC(=O)[C@@H]4CCCN4C(=O)[C@H](CCC(=O)O)NC(=O)[C@H](CC(F)(F)F)NC(=O)[C@H](Cc4c[nH]c5ccc(Br)cc45)NC(=O)[C@H](CCCCN)NC(=O)[C@H](CCC(N)=O)NC1=O)C(=O)N[C@@H](CC(=O)O)C(=O)N[C@@H](CO)C(=O)N[C@@H](CCC(=O)O)C(=O)N[C@@H](CCCNC(=N)N)C(=O)N[C@@H](CCCCN)C(=O)N3)NC(=O)[C@H](CCC(=O)O)NC(=O)[C@H](CC(C)C)NC(=O)CNC(=O)[C@H](CCC(=O)O)NC2=O (Ac-CQK[Trp(5-Br)][Abu(4,4,4-F3)]EPCDSERKCCEGLECK[Chg]WCKKKLW-NH2; disulfide 1-15, 8-20, 14-24) | 3.3 | > 17000 | 2610 | 30
CC(=O)N[C@H]1CSSC[C@@H]2NC(=O)[C@@H]3CSSC[C@@H](C(=O)N[C@@H](CCCCN)C(=O)N[C@@H](CCCCN)C(=O)N[C@@H](CCCCN)C(=O)N[C@@H](CC(C)C)C(=O)N[C@@H](Cc4c[nH]c5ccccc45)C(N)=O)NC(=O)[C@H](Cc4c[nH]c5ccccc45)NC(=O)[C@H](CC(C)C)NC(=O)[C@H](CCCCN)NC(=O)[C@H](CSSC[C@H](NC(=O)[C@@H]4CCCN4C(=O)[C@H](CCCCN)NC(=O)[C@H](CC(C)C)NC(=O)[C@H](Cc4ccccc4)NC(=O)[C@H](CCC(=O)O)NC(=O)[C@H](CCC(N)=O)NC1=O)C(=O)N[C@@H](CC(=O)O)C(=O)N[C@@H](CO)C(=O)N[C@@H](CCC(=O)O)C(=O)N[C@@H](CCCNC(=N)N)C(=O)N[C@@H](CCCCN)C(=O)N3)NC(=O)[C@H](CCC(=O)O)NC(=O)[C@H](CC(C)C)NC(=O)CNC(=O)[C@H](CCC(=O)O)NC2=O (Ac-CQEFLKPCDSERKCCEGLECKLWCKKKLW-NH2; disulfide 1-15, 8-20, 14-24) | 3.3 | > 17000 | > 17000 | 113
CC(=O)N[C@H]1CSSC[C@@H]2NC(=O)[C@@H]3CSSC[C@@H](C(=O)N[C@@H](CCCCN)C(=O)N[C@@H](CCCCN)C(=O)N[C@@H](CCCCN)C(=O)N[C@@H](CC(C)C)C(=O)N[C@@H](Cc4c[nH]c5ccccc45)C(N)=O)NC(=O)[C@H](Cc4c[nH]c5ccccc45)NC(=O)[C@H](CC(C)C)NC(=O)[C@H](CCCCN)NC(=O)[C@H](CSSC[C@H](NC(=O)[C@@H]4CCCN4C(=O)[C@H](C)NC(=O)[C@H](CC(C)C)NC(=O)[C@H](Cc4ccccc4)NC(=O)[C@H](CCCCN)NC(=O)[C@H](CCC(N)=O)NC1=O)C(=O)N[C@@H](CC(=O)O)C(=O)N[C@@H](CO)C(=O)N[C@@H](CCC(=O)O)C(=O)N[C@@H](CCCNC(=N)N)C(=O)N[C@@H](CCCCN)C(=O)N3)NC(=O)[C@H](CCC(=O)O)NC(=O)[C@H](CC(C)C)NC(=O)CNC(=O)[C@H](CCC(=O)O)NC2=O (Ac-CQKFLAPCDSERKCCEGLECKLWCKKKLW-NH2; disulfide 1-15, 8-20, 14-24) | 10 | > 17000 | > 17000 | 63
CC(=O)N[C@H]1CSSC[C@@H]2NC(=O)[C@@H]3CSSC[C@@H](C(=O)N[C@@H](CCCCN)C(=O)N[C@@H](CCCCN)C(=O)N[C@@H](CCCCN)C(=O)N[C@@H](CC(C)C)C(N)=O)NC(=O)[C@H](Cc4c[nH]c5ccccc45)NC(=O)[C@H](C4CCCCC4)NC(=O)[C@H](CCCCN)NC(=O)[C@H](CSSC[C@H](NC(=O)[C@@H]4CCCN4C(=O)[C@H](CCC(=O)O)NC(=O)[C@H](CC(F)(F)F)NC(=O)[C@H](Cc4ccccc4)NC(=O)[C@H](CCCCN)NC(=O)[C@H](CCC(N)=O)NC1=O)C(=O)N[C@@H](CC(=O)O)C(=O)N[C@@H](CO)C(=O)N[C@@H](CCC(=O)O)C(=O)N[C@@H](CCCNC(=N)N)C(=O)N[C@@H](CCCCN)C(=O)N3)NC(=O)[C@H](CCC(=O)O)NC(=O)[C@H](CC(C)C)NC(=O)CNC(=O)[C@H](CCC(=O)O)NC2=O (Ac-CQKF[Abu(4,4,4-F3)]EPCDSERKCCEGLECK[Chg]WCKKKL-NH2; disulfide 1-15, 8-20, 14-24) | 100 | > 17000 | > 17000 | 240
CC(=O)N[C@H]1CSSC[C@@H]2NC(=O)[C@@H]3CSSC[C@@H](C(=O)N[C@@H](CCCCN)C(=O)N[C@@H](CCCCN)C(=O)N[C@@H](CCCCN)C(=O)N[C@@H](CC(C)C)C(=O)N[C@@H](Cc4c[nH]c5ccccc45)C(N)=O)NC(=O)[C@H](Cc4c[nH]c5ccccc45)NC(=O)[C@H](C4CCCCC4)NC(=O)[C@H](CCCCN)NC(=O)[C@H](CSSC[C@H](NC(=O)[C@@H]4CCCN4C(=O)[C@H](CCC(=O)O)NC(=O)[C@H](CC(F)(F)F)NC(=O)[C@H](Cc4cccc(Cl)c4)NC(=O)[C@H](CCCCN)NC(=O)[C@H](CCC(N)=O)NC1=O)C(=O)N[C@@H](CC(=O)O)C(=O)N[C@@H](CO)C(=O)N[C@@H](CCC(=O)O)C(=O)N[C@@H](CCCNC(=N)N)C(=O)N[C@@H](CCCCN)C(=O)N3)NC(=O)[C@H](CCC(=O)O)NC(=O)[C@H](CC(C)C)NC(=O)CNC(=O)[C@H](CCC(=O)O)NC2=O (Ac-CQK[Phe(3-Cl)][Abu(4,4,4-F3)]EPCDSERKCCEGLECK[Chg]WCKKKLW-NH2; disulfide 1-15, 8-20, 14-24) | 33 | > 17000 | > 17000 | 64
CC(=O)N[C@H]1CSSC[C@@H]2NC(=O)[C@@H]3CSSC[C@@H](C(=O)N[C@@H](CCCCN)C(=O)N[C@@H](CCCCN)C(=O)N[C@@H](CCCCN)C(=O)N[C@@H](CC(C)C)C(=O)N[C@@H](Cc4c[nH]c5ccccc45)C(N)=O)NC(=O)[C@H](Cc4c[nH]c5ccccc45)NC(=O)[C@H](CC(C)C)NC(=O)[C@H](C(C)C)NC(=O)[C@H](CSSC[C@H](NC(=O)[C@@H]4CCCN4C(=O)[C@H](C)NC(=O)[C@H](CC(C)C)NC(=O)[C@H](Cc4ccccc4)NC(=O)[C@H](CCCCN)NC(=O)[C@H](CCC(N)=O)NC1=O)C(=O)N[C@@H](CC(=O)O)C(=O)N[C@@H](CO)C(=O)N[C@@H](CCC(=O)O)C(=O)N[C@@H](CCCNC(=N)N)C(=O)N[C@@H](CCCCN)C(=O)N3)NC(=O)[C@H](CCC(=O)O)NC(=O)[C@H](CC(C)C)NC(=O)CNC(=O)[C@H](CCC(=O)O)NC2=O (Ac-CQKFLAPCDSERKCCEGLECVLWCKKKLW-NH2; disulfide 1-15, 8-20, 14-24) | 30 | > 17000 | > 17000 | 232
CC(=O)N[C@H]1CSSC[C@@H]2NC(=O)[C@@H]3CSSC[C@@H](C(=O)N[C@@H](CCCCN)C(=O)N[C@@H](CCCCN)C(=O)N[C@@H](CCCCN)C(=O)N[C@@H](CC(C)C)C(=O)N[C@@H](Cc4c[nH]c5ccccc45)C(N)=O)NC(=O)[C@H](Cc4c[nH]c5ccccc45)NC(=O)[C@H](C4CCCCC4)NC(=O)[C@H](CCCCN)NC(=O)[C@H](CSSC[C@H](NC(=O)[C@@H]4CCCN4C(=O)[C@H](CCC(=O)O)NC(=O)[C@H](CC(F)(F)F)NC(=O)[C@H](CC4CCCCC4)NC(=O)[C@H](CCCCN)NC(=O)[C@H](CCC(N)=O)NC1=O)C(=O)N[C@@H](CC(=O)O)C(=O)N[C@@H](CO)C(=O)N[C@@H](CCC(=O)O)C(=O)N[C@@H](CCCNC(=N)N)C(=O)N[C@@H](CCCCN)C(=O)N3)NC(=O)[C@H](CCC(=O)O)NC(=O)[C@H](CC(C)C)NC(=O)CNC(=O)[C@H](CCC(=O)O)NC2=O (Ac-CQK[Cha][Abu(4,4,4-F3)]EPCDSERKCCEGLECK[Chg]WCKKKLW-NH2; disulfide 1-15, 8-20, 14-24) | 30 | > 17000 | > 17000 | 109
